Our source for the melting point values is US7820648B2, “Pyrimidine derivatives for the treatment of abnormal cell growth” (Pfizer Inc, priority 2005, dated 2010).

A word on the melting point: it is the temperature, or range, at which the solid turns liquid.

Structures are written as SMILES.

`CC(=O)N1[C@@H]2CC[C@H]1c1ccc(Nc3ncc(C)c(NC4CC4)n3)cc12` had a melting point of 108 to 112 °C.
